PubChem BioAssay (NCI)
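Cultured in 96-well plates, cells were exposed to test compound for 48 hours across five concentrations. GI50 marks 50% less growth. TGI: total growth inhibition.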

Key:
Assay in all cases: NCI tumour cell line growth inhibition, 48 h
CCRF-CEM leukemia = system: CCRF-CEM leukemia
MALME-3M melanoma = system: MALME-3M melanoma
SNB-19 CNS = system: SNB-19 CNS
SF-268 CNS = system: SF-268 CNS
COLO 205 colon = system: COLO 205 colon
HOP-62 NSCLC = system: HOP-62 NSCLC
HCT-116 colon = system: HCT-116 colon
EKVX NSCLC = system: EKVX NSCLC
SK-MEL-2 melanoma = system: SK-MEL-2 melanoma
HL-60(TB) leukemia = system: HL-60(TB) leukemia

Structure (SMILES) | TGI (CCRF-CEM leukemia) [µM] | TGI (MALME-3M melanoma) [µM] | TGI (SNB-19 CNS) [µM] | TGI (SF-268 CNS) [µM] | TGI (COLO 205 colon) [µM] | TGI (HOP-62 NSCLC) [µM] | TGI (HCT-116 colon) [µM] | TGI (EKVX NSCLC) [µM] | TGI (SK-MEL-2 melanoma) [µM] | TGI (HL-60(TB) leukemia) [µM] | GI50 (CCRF-CEM leukemia) [µM] | GI50 (MALME-3M melanoma) [µM] | GI50 (SNB-19 CNS) [µM] | GI50 (SF-268 CNS) [µM] | GI50 (HL-60(TB) leukemia) [µM] | GI50 (COLO 205 colon) [µM] | GI50 (EKVX NSCLC) [µM] | GI50 (SK-MEL-2 melanoma) [µM] | GI50 (HOP-62 NSCLC) [µM] | GI50 (HCT-116 colon) [µM]
O=C1c2ccccc2C(=O)c2nc3ccc(Cl)cc3cc21 | > 100 | > 100 | > 100 | > 100 | > 100 | > 100 | > 100 | > 100 | > 100 | – | – | – | – | – | – | – | – | – | – | –
CSc1ccc(C(=O)C(=O)c2ccc(SC)s2)s1 | > 10 | – | > 10 | > 10 | > 10 | > 10 | > 10 | > 10 | > 10 | > 10 | – | – | – | – | – | – | – | – | – | –
CC(=O)N(Cc1ccccc1)c1ccccc1I(=O)=O | 35.5 | > 100 | > 100 | 48.9 | 90.4 | – | – | > 100 | > 100 | 50.8 | 16.6 | 19.3 | 82.2 | 16.2 | 14.9 | 28.9 | 88.5 | 63.6 | – | –
CC(C)C(=O)Oc1cc2c(=O)oc3c(OC(=O)C(C)C)c(OC(=O)C(C)C)cc4c(=O)oc(c1OC(=O)C(C)C)c2c34 | > 100 | > 100 | > 100 | > 100 | > 100 | > 100 | > 100 | > 100 | – | – | – | – | – | – | – | – | – | – | – | –
O=C1C=CC2(C=C1)C[C@H](NC(=O)C(F)(F)F)C(=O)O2 | 50.9 | 40.3 | > 100 | > 100 | > 100 | > 100 | > 100 | 39.6 | – | 36.1 | – | – | – | – | – | – | – | – | – | –
N[C@@H]1CCCC[C@@H]1N.O=P([O-])([O-])CN(CP(=O)([O-])[O-])CP(=O)([O-])[O-].[Pt+2] | > 100 | > 100 | > 100 | > 100 | > 100 | > 100 | > 100 | – | > 100 | > 100 | > 100 | > 100 | > 100 | > 100 | > 100 | > 100 | – | > 100 | > 100 | > 100
Cc1cc(Cl)cc2c1NC(=O)C2=O (tested in a mixture with another compound) | 44.9 | > 100 | > 100 | > 100 | > 100 | > 100 | > 100 | > 100 | > 100 | – | – | – | – | – | – | – | – | – | – | –
O=C(Cc1csc2nc(-c3ccc(Br)cc3)cn12)N/N=C/c1ccc(O)cc1 | 79.9 | – | > 100 | > 100 | > 100 | 53.2 | 24.2 | 65.9 | 95.9 | – | 12.2 | – | 57.5 | > 100 | – | 43.3 | 11.5 | 26.1 | 18.1 | 10.5
Cc1cc([N+](=O)[O-])c(C)c(Br)c1C | – | > 100 | > 100 | > 100 | > 100 | > 100 | > 100 | > 100 | > 100 | – | – | – | – | – | – | – | – | – | – | –
C=[CH][Sn]([CH]=C)([O]c1cccc2cccnc12)[O]c1cccc2cccnc12 | – | 10.3 | 23.8 | 29.9 | 3.19 | 32.8 | 2.46 | 17.2 | 7.87 | 2.91 | – | 3.35 | 8.36 | 5.12 | 0.619 | 1.79 | 5.58 | 1.72 | 10.7 | 1.12
CC1CC[C@]2(C(=O)O)CCC3(C)C(=CCC4[C@@]5(C)CC[C@H](OS(=O)(=O)c6ccccc6)C(C)(C)C5CC[C@]43C)[C@@H]2[C@H]1C (some centres not stated) | > 100 | > 100 | > 100 | > 100 | > 100 | > 100 | > 100 | > 100 | > 100 | – | – | – | – | – | – | – | – | – | – | –
CC1=NN(C(=O)c2ccccc2O)C(=O)/C1=C/c1cccc([N+](=O)[O-])c1 | > 100 | > 100 | > 100 | > 100 | > 100 | – | > 67.7 | > 100 | > 21.9 | > 62.9 | – | – | – | – | – | – | – | – | – | –
CC1OC(OC2CCC3(C=O)C4CCC5(C)C(C6=CC(=O)OC6)CCC5(O)C4CCC3(O)C2)C(O)C(O)C1O (configuration not stated) | – | 8.23e-05 | 0.0657 | 4.11e-05 | 0.0025 | 3.85e-05 | – | 3.38e-05 | 0.000326 | 0.000107 | – | – | – | – | – | – | – | – | – | –
CCN(CC)CCN(C(=O)C(C)(C)C)c1ccccc1N | > 100 | > 100 | > 100 | > 100 | – | > 100 | > 100 | > 100 | – | > 100 | – | – | – | – | – | – | – | – | – | –
CC1COCC(C)N1C1=C(Cl)C(=O)c2ccccc2C1=O (configuration not stated) | – | 2.97 | 28.1 | 21.1 | 27 | 27.4 | 3.01 | 2.87 | – | 5.03 | – | 1.5 | 14.9 | 7.85 | 2.02 | 13.3 | 1.42 | – | 14 | 1.65
COc1ccc(CCN2CCc3c(C)c(C#N)c4nc5ccccc5n4c32)cc1OC | > 100 | 99.8 | > 100 | > 100 | 89.8 | > 100 | > 100 | – | 44.7 | > 100 | – | – | – | – | – | – | – | – | – | –
N#CC1C=Cc2ccccc2N1C(=O)Oc1ccccc1 (configuration not stated) | 81.6 | > 100 | > 100 | > 100 | > 100 | – | > 100 | > 100 | 64.3 | 48.6 | – | – | – | – | – | – | – | – | – | –
COc1cc2c(c(OC)c1OC)-c1ccc(SC)c(=O)cc1[C@@H](NC(=O)c1ccc(Cl)cc1)CC2 | > 100 | 5.03 | 11.1 | > 100 | 0.0265 | 2.03 | 11.3 | – | 5.47 | < 0.01 | – | – | – | – | – | – | – | – | – | –
COc1ccc(C2CCc3cc4c(cc3/C2=N/OC(C)=O)OCO4)cc1OC (configuration not stated) | > 100 | 55.2 | > 100 | > 100 | 63.5 | > 100 | 28.1 | > 100 | 64.7 | – | – | – | – | – | – | – | – | – | – | –
CSC1=NCC2(S1)c1ccccc1N(C(=O)OC(C)(C)C)C2N1CCCCC1 (configuration not stated) | > 100 | > 100 | – | > 100 | – | > 100 | > 100 | > 100 | > 100 | > 100 | > 100 | 15.3 | – | 74.4 | 63.7 | – | > 100 | > 100 | 23.4 | 40.6
